Assay results from publication PMC8155022 (Scientific Reports, 2021).

How the values were obtained:
5-HT3 (h) = target: T1, 5-HT3 (h) (Homo sapiens, UniProt P46098); test: Cerep panel; type: binding
T1 construct: purchased Cerep (receptors, ion channels, transporters); Eurofins Panlabs (kinases)
Method: (§1) A panel of 52 different receptors, ion channels and transporters was tested by Cerep, Inc. (Redmond, WA).

TRα = TRα (Homo sapiens, UniProt P10827); test: nuclear receptor cellular GAL4 reporter assay; type: cell-based; details: agonist and antagonist mode; read-out: potency in agonist and antagonist mode
PPARα = target: T2, PPARα (Homo sapiens, UniProt Q07869); test: nuclear receptor cellular GAL4 reporter assay; type: cell-based; details: agonist and antagonist mode; read-out: potency in agonist and antagonist mode
T2 construct: expressed in transfected cells

rat whole blood = test: in vitro whole blood assay, IL-17A production; type: cell-based; details: rat whole blood diluted 1:4; read-out: IC50, inhibition of IL-17A production
Method: Two days later, IL-17A levels were measured in culture supernatant samples (see supplementary materials and methods).

ETA (h) = target: T3, ETA (h) (Homo sapiens, UniProt P25101); test: Cerep panel; type: binding
T3 construct: purchased Cerep (receptors, ion channels, transporters); Eurofins Panlabs (kinases)
Method: as §1

A1 (h) = target: T4, A1 (h) (Homo sapiens, UniProt P30542); test: Cerep panel; type: binding
T4 construct: purchased Cerep (receptors, ion channels, transporters); Eurofins Panlabs (kinases)
T4 sequence (P30542 whole entry): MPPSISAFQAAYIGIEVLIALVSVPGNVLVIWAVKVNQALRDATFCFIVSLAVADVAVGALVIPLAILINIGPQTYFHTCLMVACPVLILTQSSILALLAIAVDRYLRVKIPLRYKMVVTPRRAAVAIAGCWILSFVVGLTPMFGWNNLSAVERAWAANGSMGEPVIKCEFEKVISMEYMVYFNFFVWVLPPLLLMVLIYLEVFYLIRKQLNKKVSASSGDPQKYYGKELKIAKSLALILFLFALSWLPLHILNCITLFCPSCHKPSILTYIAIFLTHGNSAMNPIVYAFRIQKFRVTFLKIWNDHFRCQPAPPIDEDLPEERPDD
Method: as §1

[1] = tested on: CD4+ T cells under Treg polarizing conditions; test: in vitro human Treg differentiation, FOXP3 gene expression; type: cell-based; details: 6 days
Description: Supplement Materials and Methods
In vitro human Treg differentiation
Human nTreg Suppressive Assay

ERα = target: T5, ERα (Homo sapiens, UniProt P03372); test: nuclear receptor cellular GAL4 reporter assay; type: cell-based; details: agonist and antagonist mode; read-out: potency in agonist and antagonist mode
T5 construct: expressed in transfected cells

5HT2C = 5HT2C (Homo sapiens, UniProt P28335); test: GPCR panel, cAMP or calcium FLIPR assays; type: cell-based
Sequence of 5HT2C (P28335 33-458, species assumed): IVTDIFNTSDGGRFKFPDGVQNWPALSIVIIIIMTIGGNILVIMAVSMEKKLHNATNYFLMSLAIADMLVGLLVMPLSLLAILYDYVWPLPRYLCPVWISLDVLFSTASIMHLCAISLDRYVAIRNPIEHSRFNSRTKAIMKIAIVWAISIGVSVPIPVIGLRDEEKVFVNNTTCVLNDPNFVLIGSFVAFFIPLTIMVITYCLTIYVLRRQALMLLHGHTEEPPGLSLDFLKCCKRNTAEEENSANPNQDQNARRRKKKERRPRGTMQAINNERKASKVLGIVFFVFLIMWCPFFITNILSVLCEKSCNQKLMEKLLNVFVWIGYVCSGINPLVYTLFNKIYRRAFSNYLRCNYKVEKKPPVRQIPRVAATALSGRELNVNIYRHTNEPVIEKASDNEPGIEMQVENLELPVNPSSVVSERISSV
Method: (§2) 28 GPCRs were evaluated through cAMP or calcium FLIPR assays[67].

M3 (h) = target: T6, M3 (h) (Homo sapiens, UniProt P20309); test: Cerep panel; type: binding
T6 construct: purchased Cerep (receptors, ion channels, transporters); Eurofins Panlabs (kinases)
T6 sequence (P20309 whole entry): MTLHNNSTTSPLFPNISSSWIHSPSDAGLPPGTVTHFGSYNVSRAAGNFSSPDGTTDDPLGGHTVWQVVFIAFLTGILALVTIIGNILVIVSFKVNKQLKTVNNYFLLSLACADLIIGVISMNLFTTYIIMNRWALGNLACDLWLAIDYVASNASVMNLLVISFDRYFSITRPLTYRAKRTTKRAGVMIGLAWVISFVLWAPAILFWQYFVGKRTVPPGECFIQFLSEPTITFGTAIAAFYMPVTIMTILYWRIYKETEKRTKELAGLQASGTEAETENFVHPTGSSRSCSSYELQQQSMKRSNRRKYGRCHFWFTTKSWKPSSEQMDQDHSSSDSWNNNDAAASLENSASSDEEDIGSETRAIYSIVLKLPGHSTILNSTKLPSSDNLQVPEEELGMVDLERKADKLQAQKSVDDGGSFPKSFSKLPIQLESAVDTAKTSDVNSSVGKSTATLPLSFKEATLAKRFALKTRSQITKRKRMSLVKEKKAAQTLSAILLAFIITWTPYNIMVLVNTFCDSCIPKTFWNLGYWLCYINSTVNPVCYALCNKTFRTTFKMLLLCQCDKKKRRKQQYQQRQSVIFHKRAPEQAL
Method: as §1

ZAP-70(h) = target: T7, ZAP-70(h) (Homo sapiens, UniProt P43403); test: Kinase panel; type: biochemical
T7 construct: purchased Cerep (receptors, ion channels, transporters); Eurofins Panlabs (kinases)
Method: (§3) Kinase selectivity was conducted by Eurofins Panlabs Inc (St Charles, MO).

B2 (h) = target: T8, B2 (h) (Homo sapiens, UniProt P30411); test: Cerep panel; type: binding
T8 construct: purchased Cerep (receptors, ion channels, transporters); Eurofins Panlabs (kinases)
T8 sequence (P30411 whole entry): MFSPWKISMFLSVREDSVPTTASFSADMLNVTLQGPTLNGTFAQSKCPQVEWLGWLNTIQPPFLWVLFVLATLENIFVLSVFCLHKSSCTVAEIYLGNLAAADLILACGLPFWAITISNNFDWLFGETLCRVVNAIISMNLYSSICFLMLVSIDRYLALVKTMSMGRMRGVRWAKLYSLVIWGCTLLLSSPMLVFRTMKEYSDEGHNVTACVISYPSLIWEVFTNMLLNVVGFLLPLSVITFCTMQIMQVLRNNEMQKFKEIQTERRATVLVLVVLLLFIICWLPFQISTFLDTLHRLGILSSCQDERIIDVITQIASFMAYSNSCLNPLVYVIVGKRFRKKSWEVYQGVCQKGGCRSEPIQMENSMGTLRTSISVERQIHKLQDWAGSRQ
Method: as §1

5-HT2A (h) = target: T9, 5-HT2A (h) (Homo sapiens, UniProt P28223); test: Cerep panel; type: binding
T9 construct: purchased Cerep (receptors, ion channels, transporters); Eurofins Panlabs (kinases)
T9 sequence (P28223 whole entry): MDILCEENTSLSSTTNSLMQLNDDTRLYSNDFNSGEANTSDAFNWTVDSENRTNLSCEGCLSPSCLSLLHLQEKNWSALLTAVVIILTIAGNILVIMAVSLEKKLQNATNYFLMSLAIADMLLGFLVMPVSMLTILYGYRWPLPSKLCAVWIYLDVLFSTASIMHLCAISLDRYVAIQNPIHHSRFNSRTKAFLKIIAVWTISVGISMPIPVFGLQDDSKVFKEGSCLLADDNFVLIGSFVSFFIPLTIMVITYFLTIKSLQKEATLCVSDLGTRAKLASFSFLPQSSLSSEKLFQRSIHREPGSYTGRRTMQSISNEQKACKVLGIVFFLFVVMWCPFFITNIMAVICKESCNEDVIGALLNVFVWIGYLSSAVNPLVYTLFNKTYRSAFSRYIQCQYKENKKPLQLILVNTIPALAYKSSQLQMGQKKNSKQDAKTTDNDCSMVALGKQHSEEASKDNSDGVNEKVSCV
Method: as §1

Blk(h) = target: T10, Blk(h) (Homo sapiens, UniProt P51451); test: Kinase panel; type: biochemical
T10 construct: purchased Cerep (receptors, ion channels, transporters); Eurofins Panlabs (kinases)
Method: as §3

PPARγ = target: T11, PPARγ (Homo sapiens, UniProt P37231); test: nuclear receptor cellular GAL4 reporter assay; type: cell-based; details: agonist and antagonist mode; read-out: potency in agonist and antagonist mode
T11 construct: expressed in transfected cells

delta = delta (Homo sapiens, UniProt P41143); test: GPCR panel, cAMP or calcium FLIPR assays; type: cell-based
Sequence of delta (P41143 whole entry): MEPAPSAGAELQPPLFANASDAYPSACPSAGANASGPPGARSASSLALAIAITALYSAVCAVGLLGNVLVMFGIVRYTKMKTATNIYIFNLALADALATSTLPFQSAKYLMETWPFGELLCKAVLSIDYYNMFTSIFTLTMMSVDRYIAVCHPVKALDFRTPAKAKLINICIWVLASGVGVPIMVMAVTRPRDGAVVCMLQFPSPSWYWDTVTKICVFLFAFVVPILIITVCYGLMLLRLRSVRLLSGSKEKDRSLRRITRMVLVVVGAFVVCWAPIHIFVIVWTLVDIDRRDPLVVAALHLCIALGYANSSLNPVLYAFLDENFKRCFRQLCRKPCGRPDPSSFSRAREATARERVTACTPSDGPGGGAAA
Method: as §2

NK2 (h) = target: T12, NK2 (h) (Homo sapiens, UniProt P21452); test: Cerep panel; type: binding
T12 construct: purchased Cerep (receptors, ion channels, transporters); Eurofins Panlabs (kinases)
T12 sequence (P21452 1-398): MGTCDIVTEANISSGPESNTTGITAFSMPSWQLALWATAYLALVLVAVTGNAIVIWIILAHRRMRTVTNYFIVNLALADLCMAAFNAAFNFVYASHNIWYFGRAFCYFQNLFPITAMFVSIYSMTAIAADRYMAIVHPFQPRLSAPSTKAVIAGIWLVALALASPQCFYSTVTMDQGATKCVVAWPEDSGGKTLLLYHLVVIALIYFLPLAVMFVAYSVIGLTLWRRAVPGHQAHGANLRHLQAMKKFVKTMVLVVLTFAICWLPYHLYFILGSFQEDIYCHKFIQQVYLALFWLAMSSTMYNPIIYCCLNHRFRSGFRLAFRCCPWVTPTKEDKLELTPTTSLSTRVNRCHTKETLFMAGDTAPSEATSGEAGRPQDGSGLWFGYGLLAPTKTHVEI
Method: 28 GPCRs were evaluated through cAMP or calcium FLIPR assays[67]. A panel of 52 different receptors, ion channels and transporters was tested by Cerep, Inc. (Redmond, WA). Kinase selectivity was conducted by Eurofins Panlabs Inc (St Charles, MO).

ADRA1A = ADRA1A (Homo sapiens, UniProt P35348); test: GPCR panel, cAMP or calcium FLIPR assays; type: cell-based
Sequence of ADRA1A (P35348 whole entry): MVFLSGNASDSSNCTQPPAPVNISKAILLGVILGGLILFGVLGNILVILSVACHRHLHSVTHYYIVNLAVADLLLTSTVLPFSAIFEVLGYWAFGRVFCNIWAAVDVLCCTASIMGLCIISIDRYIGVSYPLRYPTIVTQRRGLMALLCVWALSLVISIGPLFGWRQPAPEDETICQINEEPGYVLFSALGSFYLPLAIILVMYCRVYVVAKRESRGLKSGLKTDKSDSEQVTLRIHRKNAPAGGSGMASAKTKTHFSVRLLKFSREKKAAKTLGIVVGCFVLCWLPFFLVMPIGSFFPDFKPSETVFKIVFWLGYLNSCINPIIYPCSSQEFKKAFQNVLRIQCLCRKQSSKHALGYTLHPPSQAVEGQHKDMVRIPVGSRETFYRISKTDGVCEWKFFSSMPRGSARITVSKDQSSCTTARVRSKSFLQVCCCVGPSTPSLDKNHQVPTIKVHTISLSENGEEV
Method: as §2

CLK2(h) = target: T13, CLK2(h) (Homo sapiens, UniProt P49760); test: Kinase panel; type: biochemical
T13 construct: purchased Cerep (receptors, ion channels, transporters); Eurofins Panlabs (kinases)
Method: as §3

5HT2A = 5HT2A (Homo sapiens, UniProt P28223); test: GPCR panel, cAMP or calcium FLIPR assays; type: cell-based
Sequence of 5HT2A (P28223 whole entry, species assumed): as the sequence (P28223 whole entry) above
Method: 28 GPCRs were evaluated through cAMP or calcium FLIPR assays[67]. A panel of 52 different receptors, ion channels and transporters was tested by Cerep, Inc. (Redmond, WA).

M1 = M1 (Homo sapiens, UniProt P11229); test: GPCR panel, cAMP or calcium FLIPR assays; type: cell-based
Method: as §2

M2 (h) = target: T14, M2 (h) (Homo sapiens, UniProt P08172); test: Cerep panel; type: binding
T14 construct: purchased Cerep (receptors, ion channels, transporters); Eurofins Panlabs (kinases)
T14 sequence (P08172 whole entry): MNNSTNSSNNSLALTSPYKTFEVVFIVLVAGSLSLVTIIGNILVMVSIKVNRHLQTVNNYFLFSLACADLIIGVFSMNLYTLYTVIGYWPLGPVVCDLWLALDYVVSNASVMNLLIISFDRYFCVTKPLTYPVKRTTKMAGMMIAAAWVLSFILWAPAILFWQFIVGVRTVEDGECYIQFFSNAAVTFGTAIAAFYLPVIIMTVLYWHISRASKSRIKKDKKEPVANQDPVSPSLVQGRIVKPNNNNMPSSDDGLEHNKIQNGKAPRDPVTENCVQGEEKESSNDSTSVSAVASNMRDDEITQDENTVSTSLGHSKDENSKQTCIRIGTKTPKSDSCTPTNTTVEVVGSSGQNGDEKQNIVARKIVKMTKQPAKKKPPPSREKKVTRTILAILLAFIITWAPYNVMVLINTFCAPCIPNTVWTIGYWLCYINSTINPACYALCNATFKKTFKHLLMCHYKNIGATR
Method: as §1

5-HT6 (h) = target: T15, 5-HT6 (h) (Homo sapiens, UniProt P50406); test: Cerep panel; type: binding
T15 construct: purchased Cerep (receptors, ion channels, transporters); Eurofins Panlabs (kinases)
Method: as §1

mouse whole blood = test: in vitro whole blood assay, IL-17A production; type: cell-based; details: mouse whole blood diluted 1:4; read-out: IC50, inhibition of IL-17A production
MAPK2(h) = target: T16, MAPK2(h) (Homo sapiens, UniProt P28482); test: Kinase panel; type: biochemical
T16 construct: purchased Cerep (receptors, ion channels, transporters); Eurofins Panlabs (kinases)
T16 sequence (P28482 whole entry): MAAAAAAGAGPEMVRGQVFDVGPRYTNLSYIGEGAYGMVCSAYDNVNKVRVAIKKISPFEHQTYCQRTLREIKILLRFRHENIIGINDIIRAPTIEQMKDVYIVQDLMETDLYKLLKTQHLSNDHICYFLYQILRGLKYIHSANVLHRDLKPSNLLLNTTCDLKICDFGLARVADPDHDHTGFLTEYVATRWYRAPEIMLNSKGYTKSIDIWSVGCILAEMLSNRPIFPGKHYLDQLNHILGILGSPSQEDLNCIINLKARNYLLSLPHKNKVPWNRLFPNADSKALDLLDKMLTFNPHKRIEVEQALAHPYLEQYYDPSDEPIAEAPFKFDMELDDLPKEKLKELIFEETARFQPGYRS
Method: as §3

PKCα(h) = target: T17, PKCα(h) (Homo sapiens, UniProt P17252); test: Kinase panel; type: biochemical
T17 construct: purchased Cerep (receptors, ion channels, transporters); Eurofins Panlabs (kinases)
Method: as §3

T1 sequence (P46098 24-478): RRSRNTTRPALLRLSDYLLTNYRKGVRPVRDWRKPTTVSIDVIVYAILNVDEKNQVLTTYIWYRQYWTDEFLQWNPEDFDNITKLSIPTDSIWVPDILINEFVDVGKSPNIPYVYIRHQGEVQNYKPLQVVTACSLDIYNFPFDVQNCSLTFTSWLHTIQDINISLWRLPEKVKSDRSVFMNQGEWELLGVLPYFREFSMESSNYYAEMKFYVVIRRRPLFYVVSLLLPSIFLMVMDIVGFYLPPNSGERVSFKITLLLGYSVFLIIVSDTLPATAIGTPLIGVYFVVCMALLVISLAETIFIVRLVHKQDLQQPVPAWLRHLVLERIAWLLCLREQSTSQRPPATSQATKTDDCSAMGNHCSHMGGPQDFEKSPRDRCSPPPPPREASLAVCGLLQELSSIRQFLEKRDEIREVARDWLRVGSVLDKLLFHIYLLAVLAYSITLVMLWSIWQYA

Compound `CC1CCCN1C(=O)c1nc(C(=O)NCC(C)(C)O)sc1-c1ccc(C(O)(C(F)(F)F)C(F)(F)F)c(Cl)c1Cl` (stereo not shown) [JNJ-61803534] has an inhibition at 1 µM (5-HT3 (h)) of under 10%, an inhibition at 10 µM (5-HT3 (h)) of under 10% and an IC50 (TRα) of over 1.5 µM. For the same compound, the IC50 (PPARα) was over 1.5 µM, the IC50 (rat whole blood) was 0.12 ± 0.01 µM and the inhibition at 1 µM (ETA (h)) was under 10%. For the same compound, the inhibition at 10 µM (ETA (h)) was under 10%, the inhibition at 1 µM (A1 (h)) was under 10% and the inhibition at 10 µM (A1 (h)) was under 10%. For the same compound, the “FOXP3 expression levels versus DMSO-treated cells” value [1] was “similar”, the IC50 (ERα) was over 1.5 µM and the EC50 (5HT2C; agonist) was over 10 µM. It also gave an IC50 (5HT2C; antagonist) of over 10 µM, an inhibition at 1 µM (M3 (h)) of under 10% and an inhibition at 10 µM (M3 (h)) of under 10%. For the same compound, the activity at 1 µM (ZAP-70(h)) was 137%, the activity at 10 µM (ZAP-70(h)) was 119% and the inhibition at 1 µM (B2 (h)) was under 10%. For the same compound, the inhibition at 10 µM (B2 (h)) was under 10%, the inhibition at 1 µM (5-HT2A (h)) was under 10% and the inhibition at 10 µM (5-HT2A (h)) was under 10%. It also gave an activity at 1 µM (Blk(h)) of 95%, an activity at 10 µM (Blk(h)) of 102% and an IC50 (PPARγ) of over 1.5 µM. It also gave an EC50 (delta; agonist) of over 12.5 µM, an IC50 (delta; antagonist) of over 12.5 µM and an inhibition at 1 µM (NK2 (h); 1 µM) of under 10%. The “% Inhibition at 10 µM” value (NK2 (h); 10 µM) was 54.8%, the inhibition at 10 µM (NK2 (h); 10 µM) was over 50% and the EC50 (ADRA1A; agonist) was over 10 µM. The IC50 (ADRA1A; antagonist) was over 10 µM, the activity at 1 µM (CLK2(h)) was 108% and the activity at 10 µM (CLK2(h)) was 99%. It also gave an EC50 (5HT2A; agonist) of over 10 µM, an IC50 (5HT2A; antagonist) of over 10 µM and an EC50 (M1; agonist) of over 10 µM. It also gave an IC50 (M1; antagonist) of over 10 µM, an inhibition at 1 µM (M2 (h)) of under 10% and an inhibition at 10 µM (M2 (h)) of under 10%. It also gave an inhibition at 1 µM (5-HT6 (h)) of under 10%, an inhibition at 10 µM (5-HT6 (h)) of under 10% and an IC50 (mouse whole blood) of 0.172 ± 0.05 µM. The activity at 1 µM (MAPK2(h)) was 124%, the activity at 10 µM (MAPK2(h)) was 127% and the activity at 1 µM (PKCα(h)) was 102%. For the same compound, the activity at 10 µM (PKCα(h)) was 99%.
